Converted amounts (≈) assume the structure as drawn. Where two headings read alike, the source gives them in different places. No end group written: not given here.
Key:
[1] = Plasma protein binding by equilibrium dialysis, murine; type: in vitro ADME; conditions: mouse, read-out: PPB (% bound)
Description: The free and bound fractions of the tested compounds in mouse and human plasma were determined by equilibrium dialysis using a 96-well Teflon dialysis unit (HTDialysis plate complete unit, HT Dialysis, USA). The HTDialysis plate complete unit consists of a 96-well plate with wells vertically bisected by a semipermeable membrane (membranes strips 12 to 14 kDa) creating two chambers. A 125 μL aliquot of plasma containing tested compound at 10 μM was placed on one side and 125 μL of Dulbecco‘s phosphate buffered saline (D-PBS) on the other. The plate was incubated at 37 °C for 6 hr under gentle agitation. Then, samples from both plasma and buffer compartment were analyzed by a LC-MS/MS method to measure the free fraction and the bound fraction to the plasma proteins. […]

Kinetic solubility = type: physicochemical; conditions: PBS pH 7.4 buffer, pH 7.4, aqueous buffer, kinetic from dmso stock
Description: 10 mM DMSO Stock solutions of tested compounds were distributed into filtration plate (Multiscreen Durapore 0.45µm) containing PBS pH 7.4 buffer to a final maximum concentration of 130 μM (1.3 % DMSO/buffer). Solutions or suspensions were shaken for 30 min at room temperature. The samples were filtered under vacuum into a collection plate and diluted 50 % with ACN for UV analysis. Quantification was performed against a Reference plate containing the same tested compounds fully solubilized in ACN/PBS buffer 1:1. Reference and Sample plates were analyzed by UPLC/UV-MS using a generic UPLC method. […]

[2] = Cryopreserved hepatocyte stability, human; type: in vitro ADME; conditions: cryopreserved hepatocytes, read-out: CLint hHep
Description: (§1) Cryopreserved hepatocyte stability
(§2) Tested compounds (1 μM) were incubated with human cryopreserved hepatocytes (pool of 5) (IVT Celsis) and mouse cryopreserved hepatocytes (IVT Celsis). Hepatocytes (1, 0.5 or 0.25 x10^6 cells/mL, Williams’ Medium E (WME) with 4 mM L-glutamine and 2 mM magnesium sulphate) containing tested compound (final substrate concentration 1 μM; final DMSO concentration 0.25 %) were preincubated at 37 °C. The final incubation volume was 500 μl. 3 species-specific control compounds were included with each species. At 7 time points (0, 10, 20, 40, 60, 90, and 120 min), reactions were stopped by transferring 50 μl of the incubation mixture into 0.5 μM carbamazepine in cold acetonitrile. Tested compound concentrations were analyzed by LC-MS/MS and the resulting data were used to determine the half-life and intrinsic clearance of the compound in each species. […]

influenza A H1N1 virus [3] = test: microbe, parasite or virus in culture
[4] = Microsomal stability, mouse liver microsomes; type: in vitro ADME; conditions: male, CD-1, mouse, pH 7.4; murine liver microsomes; read-out: CLint mLM
Description: (§3) Tested compounds (1 μM) were incubated with pooled human liver microsomes (Xenotech; pooled male and female) and pooled mouse liver microsomes (Xenotech; male CD-1 mice).
(§4) Microsomes (final protein concentrations of 0.25 and 0.5 mg/ml, 0.1 M phosphate buffer pH 7.4) containing tested compound (final substrate concentration 1 μM; final DMSO concentration 0.25 %) were preincubated at 37 °C prior to the addition of NADPH (final concentration 1 mM) to initiate the reaction. The final incubation volume was 200 μl. 3 species-specific control compounds were included with each species. At 5 time points (0, 5, 10, 20, and 40 min), reactions were stopped by transferring 50 μl of the incubation mixture into 0.5 μM carbamazepine in acetonitrile. Tested compound concentrations were analyzed by LC-MS/MS and the resulting data were used to determine the half-life and intrinsic clearance of the compound in each

[5] = Cryopreserved hepatocyte stability, mouse; type: in vitro ADME; conditions: cryopreserved hepatocytes, murine hepatocytes, read-out: CLint mHep
Description: as §1, §2

PK parameters in mice = type: in vivo, male Swiss (CD-1) mice; conditions: male, Swiss (CD-1), plasma, mouse
Description: PK parameters and tissue distribution in mice
The pharmacokinetic profiles of the tested compounds were evaluated in male Swiss (CD-1) mice around 5-6 weeks old (3 animals per sampling time). […]
0.2 % Tween 80 in water. Blood samples were collected (0.25 mL) from the sinus retro-orbital […]
24 hr for p.o. route. The blood samples were immediately centrifuged at 2500 rpm at +4 °C, and the plasma was stored at −80 °C. 50 μL of plasma sample was taken and 150 μL of acetonitrile was added. After protein precipitation, analysis of the molecule was performed using LC-MS/MS to determine plasma compound concentration. For liver and lung collection, 3 animals per group were involved and sampled after 2 hr and 24 hr upon 20 mg/kg p.o. administration. Animals were perfused with around 10 mL of saline solution directly into the heart to extract the maximal blood sample from the liver and the lung. Animals were then sacrificed by cervical dislocation and liver

HIV1 strain NL4-3 = type: cell-based; conditions: normalized mean of HIV1 replication readout
MiNT = target: T1, MiNT (Homo sapiens, UniProt P0C7P0); test: In vitro NEET [2Fe-2S] cluster release, MiNT; type: biochemical; conditions: recombinant MiNT, 37 °C, absorbance 460 nm
T1 construct: made in house; host or cells: E. coli
T1 sequence (P0C7P0 15-127): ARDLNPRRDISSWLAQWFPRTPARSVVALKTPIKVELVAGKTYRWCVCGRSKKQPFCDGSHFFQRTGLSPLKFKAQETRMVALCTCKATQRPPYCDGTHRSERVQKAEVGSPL
Description: (§5) MitoNEET ([60]) and NAF-1 ([61]) cytosolic domains and MiNT ([62]) were purified from E. coli as previously published. Experiments were performed in 96-well plates at 37 °C with […] of Fe-S cluster in a buffer composed of 50 mM Tris-HCl pH 7 and 100 mM NaCl. dEF3122 was dissolved in dimethyl sulfoxide (DMSO) at 10 mM. CPEP31 was dissolved in PBS at 10 mM. After 20 min of incubation of the protein with the molecule, NEET cluster release was followed by measuring the absorbance at 460 and 800 nm over time using a plate reader (SpectraMax ID3). The absorbance at 460 nm was corrected for the variation of the baseline (absorbance at 800 nm) over time and normalized at 1 at the beginning of the kinetics.

[6] = not given; remark: listed apart in the source
EBV = conditions: normalized mean of EBV replication readout
HCV replicon = type: cell-based; conditions: normalized mean of HCV replicon readout
NAF-1 = target: T2, NAF-1 (Homo sapiens, UniProt Q8N5K1); test: In vitro NEET [2Fe-2S] cluster release, NAF-1; type: biochemical; conditions: recombinant NAF-1, 37 °C, absorbance 460 nm
T2 construct: MitoNEET ([60]) and NAF-1 ([61]) cytosolic domains and MiNT ([62]) were purified from E. coli as previously published; made in house; host or cells: E. coli
T2 sequence (Q8N5K1 61-135 limits assumed): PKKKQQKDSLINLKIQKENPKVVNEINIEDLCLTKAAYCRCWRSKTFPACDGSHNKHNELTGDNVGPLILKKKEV
Description: as §5

influenza A H1N1 virus [7] = conditions: 48 hr post-treatment, A549
[8] = system: F. novicida (strain U112); type: cell-based; conditions: normalized area under the curve
MitoNEET = target: T3, MitoNEET (Homo sapiens, UniProt Q9NZ45); test: In vitro NEET [2Fe-2S] cluster release, MitoNEET; type: biochemical; conditions: recombinant MitoNEET, 37 °C, absorbance 460 nm
T3 construct: MitoNEET ([60]) and NAF-1 ([61]) cytosolic domains and MiNT ([62]) were purified from E. coli as previously published; made in house; host or cells: E. coli
T3 sequence (Q9NZ45 32-108 limits assumed): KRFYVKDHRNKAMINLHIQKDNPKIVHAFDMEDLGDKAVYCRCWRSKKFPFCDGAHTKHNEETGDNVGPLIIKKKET
Description: as §5

[9] = Microsomal stability, human liver microsomes; type: in vitro ADME; conditions: both sexes, pH 7.4, read-out: CLint hLM
Description: as §3, §4

Dengue virus = conditions: in vitro; cited from earlier work
[10] = H1N1, A549, read-out: Neuraminidase activity assay IC50
[11] = H1N1, A549, read-out: IC50 for the inhibition of influenza virus replication

O=C(Nc1scc(C2CCc3ccccc3C2)c1C(=O)O)c1ccccc1 (racemic) [dEF2905]
fraction unbound at 6 h, 10 µM [1]: 0.001
solubility kinetic at 30 min (Kinetic solubility): 48 µM (≈ 18.1 µg/mL)
hepatocyte CLint at 1 µM [2]: 65 µL/min/1e6 cells
IC50 (influenza A H1N1 virus [3]; [10]): 0.018 µM
microsomal CLint at 1 µM [4]: 29 µL/min/mg
hepatocyte CLint at 1 µM [5]: < 5 µL/min/1e6 cells
half-life (PK parameters in mice; iv 0.25 mg/kg, read-out: T1/2 iv (converted)): 3.8 h
Cmax (PK parameters in mice; po 2 mg/kg (dose for AUC)): 1140 ng/mL
bioavailability (PK parameters in mice; po 2 mg/kg, iv 0.25 mg/kg): 33%

EVVLFLLNVF [CPEP31]
selectivity ratio: > 12
HIV1 Norm MEAN (HIV1 strain NL4-3): 8.9
interaction by [2Fe-2S] cluster release assay (MiNT): Interactions were validated
CC50 [6]: > 100 µM
EBV Norm MEAN (EBV): 0.8028
HCV Norm MEAN (HCV replicon): 0.4448
interaction by [2Fe-2S] cluster release assay (NAF-1): Interactions were validated
Neuraminidase activity normalized to vehicle (influenza A H1N1 virus [7]; 200 µM peptide): 0,0494
Neuraminidase activity normalized to vehicle (influenza A H1N1 virus [7]; 0,823 µM peptide): 0,7352
Neuraminidase activity normalized to vehicle (influenza A H1N1 virus [7]; 22,2 µM peptide): 0,2851
Neuraminidase activity normalized to vehicle (influenza A H1N1 virus [7]; 2,4691 µM peptide): 0,951
Neuraminidase activity normalized to vehicle (influenza A H1N1 virus [7]; 7,4074 µM peptide): 0,7335
Neuraminidase activity normalized to vehicle (influenza A H1N1 virus [7]; 66,6667 µM peptide): 0,114
Francisella novicida Norm AUC [8]: 0.6912
interaction by [2Fe-2S] cluster release assay (MitoNEET): Interactions were validated

O=C(Nc1ccc(Cl)cc1)c1c(NC(=O)C2CCCCC2C(=O)O)sc2c1CCC2 (stereo not shown) [dEF384]
fraction unbound at 6 h, 10 µM [1]: < 0.01
solubility kinetic at 30 min (Kinetic solubility): 74 µM (≈ 33.1 µg/mL)
microsomal CLint at 1 µM [9]: < 14 µL/min/mg
IC50 (influenza A H1N1 virus [3]; [11]): 5 µM
microsomal CLint at 1 µM [4]: < 20 µL/min/mg
half-life (PK parameters in mice; iv 0.9 mg/kg, read-out: T1/2 iv (converted)): 1.08 h
Cmax (PK parameters in mice; po 10 mg/kg): 31300 ng/mL
bioavailability (PK parameters in mice; po 10 mg/kg, iv 0.9 mg/kg): 71%
half-life (PK parameters in mice; po 10 mg/kg, read-out: T1/2 po (converted)): 1.74 h

COc1ccc(C(=O)Nc2sc3c(c2C(=O)O)CCC(C)(C)C3)cc1OC [dEF2788]
fraction unbound at 6 h, 10 µM [1]: < 0.01
solubility kinetic at 30 min (Kinetic solubility): 104 µM (≈ 40.5 µg/mL)
microsomal CLint at 1 µM [9]: < 14 µL/min/mg
hepatocyte CLint at 1 µM [2]: 31 µL/min/1e6 cells
IC50 (influenza A H1N1 virus [3]; [10]): 0.05 µM
microsomal CLint at 1 µM [4]: 14 µL/min/mg
hepatocyte CLint at 1 µM [5]: 116 µL/min/1e6 cells
activity against Dengue virus replication (Dengue virus): active in vitro against Dengue virus replication
half-life (PK parameters in mice; iv 0.5 mg/kg, read-out: T1/2 iv (converted)): 0.8 h
Cmax (PK parameters in mice; po 5 mg/kg (dose for AUC)): 71 ng/mL
bioavailability (PK parameters in mice; po 5 mg/kg, iv 0.5 mg/kg): 26%

COc1ccc(C(=O)Nc2sc3c(c2C(=O)O)CCC(C(C)(C)C)C3)cc1 (stereo not shown) [dEF2665]
fraction unbound at 6 h, 10 µM [1]: 0.001
solubility kinetic at 30 min (Kinetic solubility): < 5 µM
microsomal CLint at 1 µM [9]: 38 µL/min/mg
IC50 (influenza A H1N1 virus [3]; [11]): 0.15 µM
microsomal CLint at 1 µM [4]: 50 µL/min/mg
